# Measured values as given in patent publication US4428950A, “(Hetarylphenoxy)-(phenylpiperazinyl)-propanols, their preparation and drugs containing these compounds” (BASF Aktiengesellschaft, priority 1981, dated 1984).
# Counter-ions that a name gives are not always drawn. Like-named read-outs stand apart in the source and are kept apart here.
# Experiments:
# [1] = tested on: orientation hypermotility; assay: Sedative action (orientation hypermotility induced by a new environment, mice); type: in vivo, mouse (NMRI, female); details: for effect in respect of sedation, % of that of chlorpromazine: relative to chlorpromazine; for Sedative effect R.A. (relative activity): chlorpromazine = 1.00; for sedative-neuroleptic properties: according to Table 1
# Procedure: The substance was administered orally to 4-8 groups each comprising 3 female NMRI mice. The orientation hypermotility induced by a new environment is determined photoelectrically, 30 minutes after administration of the substance, over a period of 30 minutes. The ED 50%, ie. the dose which produces a 50% reduction in orientation hypermotility compared to placebo-treated control animals, is determined.
# histamine bronchospasm = assay: Broncholytic action (histamine-induced bronchospasm, guineapigs under urethane narcosis); type: in vivo, guineapig (Pirbright white); details: guineapig
# Procedure: Male or female guineapigs (Pirbright white, weight 300-500 g) under urethane narcosis (1.5 g/kg administered intraperitoneally) are subjected to artificial respiration using a tracheal cannula. Bronchospasms are caused by intravenous injection of histamine dihydrochloride (1.0-4.64 μg/kg), and an antagonistic effect on these can be brought about by prior intravenous administration of the test substance. The spasms are recorded by the method of Konzett and Rossler (Naunyn Schmiedeberg's Arch. 195 (1940), 71), via inductive pressure sensors.
# blood pressure = assay: Hypotensive action (blood pressure in carotid artery of rats under urethane narcosis); type: in vivo, rat (Sprague-Dawley); details: for Hypotensive effect R.A. (relative activity): chlorpromazine = 1.00; for Hypotensive effect R.A. (relative activity) / ED20 / Hypotensive effect ED 20%: rat; for comparison with chlorpromazine, taking into account the hypotensive effect / hypotensive action, doses compared with chlorpromazine: in words; for ED20: read-out: Hypotensive effect ED 20%; for quotient of the sedative effective dose and the hypotensive effective dose, times more advantageous than for chlorpromazine: relative to chlorpromazine
# Procedure: The blood pressure was measured in the carotid artery. The substance was administered either by introduction into a jugular vein (as an aqueous solution, at the rate of 1 ml/kg) or intraperitoneally as a suspension in tragacanth (at the rate of 10 ml/kg). The ED 20%, ie. the dose which produces a 20% lowering of the blood pressure, was determined from the linear regression of log dose (mg/kg) and relative lowering of the blood pressure (Δ%).
# catalepsy = assay: Cataleptic action (front extremities on 8 cm high bar, rats); type: in vivo, rat (Sprague-Dawley, female); details: for Cataleptic effect R.A. (relative activity): chlorpromazine = 1.00; for ED50: ip, read-out: Cataleptic effect ED 50%; for effect in respect of catalepsy, % of that of chlorpromazine: relative to chlorpromazine
# Procedure: 30, 60, 120 and 240 minutes after intraperitoneal administration of the substance, female Sprague-Dawley rats were placed with the front extremities on an 8 cm high bar. If, because of postural rigidity, the animals remain in this position for longer than 15 seconds, they are regarded as cataleptic.
# [2] = Table 1, mouse, oral, dose producing 50% reduction in orientation hypermotility, read-out: Sedative effect ED 50%
# [3] = Table 1, rat, intraperitoneal, dose at which 50% of animals are cataleptic
# [4] = Table 2, sedative ED 50% vs hypotensive ED 20% i.p.
# [5] = ip, Table 2, i.p., dose which reduces the blood pressure by 20%
# [6] = Table 2, mouse, oral, dose which reduces the motility by 50%, read-out: Sedative effect ED 50%
# [7] = Table 2, sedative ED 50% vs hypotensive ED 20% i.v.
# [8] = iv, Table 2, i.v., dose which reduces the blood pressure by 20%
smiles,measurement,setting,value
"COc1cccc(N2CCN(CC(O)COc3ccc(-n4cncn4)cc3)CC2)c1 (stereo not drawn) [Example 1, 1-[4-(1,2,4-Triazol-1-yl)-phenoxy]-3-[4-(3-methoxyphenyl)-piperazin-1-yl]-propan-2-ol]",ED50,"[1]; Mus musculus, po, read-out: sedative effect ED 50%",7.6 mg/kg
same,sedative action,[1]; in words,relatively slight sedative action
same,"effect in respect of sedation, % of that of chlorpromazine",[1],28%
same,inhibition of histamine bronchospasm (average),histamine bronchospasm; 0.1 mg/kg intravenously,87%
same,broncholytic effect on the histamine bronchospasm,histamine bronchospasm; in words,strong broncholytic effect
"OC(COc1ccc(-n2cncn2)cc1)CN1CCN(c2ccc(F)cc2)CC1 (stereo not drawn) [Example 2, 1-[4-(1,2,4-Triazol-1-yl)-phenoxy]-3-[4-(4-fluorophenyl)-piperazin-1-yl]-propan-2-ol]",Hypotensive effect R.A. (relative activity),"blood pressure; Table 1, i.v.",0.08
same,Q (quotient of the sedative effective dose and the hypotensive effective dose),"blood pressure; Table 1, hypotensive dose i.v.",8.0
same,"comparison with chlorpromazine, taking into account the hypotensive effect",blood pressure,clearly superior to chlorpromazine
same,ED20,"blood pressure; iv, Table 1, i.v., dose producing 20% lowering of blood pressure",0.316 mg/kg
same,"quotient of the sedative effective dose and the hypotensive effective dose, times more advantageous than for chlorpromazine",blood pressure,10 times
same,Sedative effect R.A. (relative activity),"[1]; Table 1, mouse, oral",0.84
same,ED50,[1]; [2],2.52 mg/kg
same,sedative-neuroleptic properties,[1]; in words,powerful sedative-neuroleptic properties
same,"effect in respect of sedation, % of that of chlorpromazine",[1],84%
same,Cataleptic effect R.A. (relative activity),"catalepsy; Table 1, rat, intraperitoneal",0.43
same,ED50,catalepsy; [3],10 mg/kg
same,"effect in respect of catalepsy, % of that of chlorpromazine",catalepsy,43%
"OC(COc1ccc(-n2ccnc2)cc1)CN1CCN(c2ccc(F)cc2)CC1 (stereo not drawn) [Example 3, 1-[4-(Imidazol-1-yl)-phenoxy]-3-[4-(4-fluorophenyl)-piperazin-1-yl]-propan-2-ol]",Hypotensive effect R.A. (relative activity),"blood pressure; Table 1, i.p.",0.02
same,Q (quotient of the sedative effective dose and the hypotensive effective dose),"blood pressure; Table 1, hypotensive dose i.p.",0.3
same,"comparison with chlorpromazine, taking into account the hypotensive effect",blood pressure,clearly superior to chlorpromazine
same,ED20,"blood pressure; ip, Table 1, i.p., dose producing 20% lowering of blood pressure",10 mg/kg
same,"quotient of the sedative effective dose and the hypotensive effective dose, times more advantageous than for chlorpromazine",blood pressure,43 times
same,Sedative effect R.A. (relative activity),"[1]; Table 1, mouse, oral",0.77
same,ED50,[1]; [2],2.75 mg/kg
same,sedative-neuroleptic properties,[1]; in words,powerful sedative-neuroleptic properties
same,"effect in respect of sedation, % of that of chlorpromazine",[1],77%
same,Cataleptic effect R.A. (relative activity),"catalepsy; Table 1, rat, intraperitoneal",0.2
same,ED50,catalepsy; [3],21.5 mg/kg
same,"effect in respect of catalepsy, % of that of chlorpromazine",catalepsy,20%
"COc1ccccc1N1CCN(CC(O)COc2ccccc2-c2ccnc(N)n2)CC1 (stereo not drawn) [Example 5, 1-[2-(2-Aminopyrimidin-4-yl)-phenoxy]-3-[4-(2-methoxyphenyl)-piperazin-1-yl]-propan-2-ol]",Hypotensive effect R.A. (relative activity),"blood pressure; Table 2, i.p.",2.06
same,Q,blood pressure; [4],413
same,"hypotensive action, doses compared with chlorpromazine",blood pressure; Table 2,at lower doses than chlorpromazine
same,ED20,blood pressure; [5],0.0795 mg/kg
same,doses at which sedative side-effect is observed relative to hypotensive doses,[1]; Table 2,"400-1,300 times greater"
same,Sedative effect R.A. (relative activity),"[1]; Table 2, mouse, oral",0.06
same,ED50,[1]; [6],32.8 mg/kg
"COc1ccccc1N1CCN(CC(O)COc2ccccc2-c2cc[nH]n2)CC1 (stereo not drawn) [Example 10, 1-[2-(Pyrazol-3-yl)-phenoxy]-3-[4-(2-methoxyphenyl)-piperazin-1-yl]-propan-2-ol.HCl]",Hypotensive effect R.A. (relative activity),"blood pressure; Table 2, i.v.",0.79
same,Q,blood pressure; [7],442
same,"hypotensive action, doses compared with chlorpromazine",blood pressure; Table 2,at lower doses than chlorpromazine
same,ED20,blood pressure; [8],0.0328 mg/kg
same,doses at which sedative side-effect is observed relative to hypotensive doses,[1]; Table 2,"400-1,300 times greater"
same,Sedative effect R.A. (relative activity),"[1]; Table 2, mouse, oral",0.15
same,ED50,[1]; [6],14.5 mg/kg
"COc1ccccc1N1CCN(CC(O)COc2cccc(-c3cc[nH]n3)c2)CC1 (stereo not drawn) [Example 15, 1-[3-(Pyrazol-3-yl)-phenoxy]-3-[4-(2-methoxyphenyl)-piperazin-1-yl]-propan-2-ol.3HCl]",Hypotensive effect R.A. (relative activity),"blood pressure; Table 2, i.v.",1.39
same,Q,blood pressure; [7],"1,342"
same,"hypotensive action, doses compared with chlorpromazine",blood pressure; Table 2,at lower doses than chlorpromazine
same,ED20,blood pressure; [8],0.0187 mg/kg
same,doses at which sedative side-effect is observed relative to hypotensive doses,[1]; Table 2,"400-1,300 times greater"
same,Sedative effect R.A. (relative activity),"[1]; Table 2, mouse, oral",0.08
same,ED50,[1]; [6],25.1 mg/kg
"CN(C)CCCN1c2ccccc2Sc2ccc(Cl)cc21 [chlorpromazine, reference compound]",Hypotensive effect R.A. (relative activity),"blood pressure; Table 1, i.p.",1.0
same,Hypotensive effect R.A. (relative activity),"blood pressure; Table 1, i.v.",1.0
same,Q (quotient of the sedative effective dose and the hypotensive effective dose),"blood pressure; Table 1, hypotensive dose i.v.",81.1
same,Hypotensive effect ED 20%,"blood pressure; Table 1, i.p., dose producing 20% lowering of blood pressure",0.164
same,Hypotensive effect ED 20%,"blood pressure; Table 1, i.v., dose producing 20% lowering of blood pressure",0.026
same,Hypotensive effect R.A. (relative activity),"blood pressure; Table 2, i.p.",1.00
same,Hypotensive effect R.A. (relative activity),"blood pressure; Table 2, i.v.",1.00
same,Q,blood pressure; [4],13
same,Q,blood pressure; [7],81
same,ED20,blood pressure; [5],0.164 mg/kg
same,ED20,blood pressure; [8],0.026 mg/kg
same,Sedative effect R.A. (relative activity),"[1]; Table 1, mouse, oral",1.0
same,Sedative effect ED 50%,"[1]; Table 1, mouse, oral, dose producing 50% reduction in orientation hypermotility",2.11
same,Sedative effect R.A. (relative activity),"[1]; Table 2, mouse, oral",1.00
same,ED50,catalepsy; Rattus norvegicus,4.3 mg/kg
same,Cataleptic effect R.A. (relative activity),"catalepsy; Table 1, rat, intraperitoneal",1.0
